According to patent US20210276960A1, “INHIBITORS OF TISSUE TRANSGLUTAMINASE 2 (TG2) AND USES THEREOF” (Northwestern University, priority 2020, published 2021):

How the values were obtained:
[1] = tested on: SKOV3 cells adhesion to FN; test: Solid phase adhesion assay to FN, SKOV3; format: cell-based; conditions: FN 5 μg/mL, FIG. 2E
Procedure: Cells labeled with calcein AM (Life Technologies, #L3224) were seeded at a density of 4×10^4 cells in 96-well plates pre-coated with FN (5 μg/mL, Sigma, #F1141), and blocked using 1% BSA (Sigma, #A9647) in PBS in the presence of selected compounds diluted at the specified concentrations, in serum free media. After 45 minutes, unattached cells were washed using PBS containing 1 mM MgCl2(Sigma, #M8266) and adherent cells were quantified in a SpectraMaxGeminiXS fluorescence plate reader (Molecular Devices, Palo Alto, Calif.) at 530 nm wavelength. Experiments were performed inquadruplicate and repeated at least twice.

[2] = molecular target: T1, His-tagged TG2 / biotinylated FN42 interaction (Homo sapiens, UniProt P21980); test: ELISA of the TG2-FN interaction; format: binding; conditions: 10 μM
T1 construct: made in house
T1 sequence (P21980 1-687): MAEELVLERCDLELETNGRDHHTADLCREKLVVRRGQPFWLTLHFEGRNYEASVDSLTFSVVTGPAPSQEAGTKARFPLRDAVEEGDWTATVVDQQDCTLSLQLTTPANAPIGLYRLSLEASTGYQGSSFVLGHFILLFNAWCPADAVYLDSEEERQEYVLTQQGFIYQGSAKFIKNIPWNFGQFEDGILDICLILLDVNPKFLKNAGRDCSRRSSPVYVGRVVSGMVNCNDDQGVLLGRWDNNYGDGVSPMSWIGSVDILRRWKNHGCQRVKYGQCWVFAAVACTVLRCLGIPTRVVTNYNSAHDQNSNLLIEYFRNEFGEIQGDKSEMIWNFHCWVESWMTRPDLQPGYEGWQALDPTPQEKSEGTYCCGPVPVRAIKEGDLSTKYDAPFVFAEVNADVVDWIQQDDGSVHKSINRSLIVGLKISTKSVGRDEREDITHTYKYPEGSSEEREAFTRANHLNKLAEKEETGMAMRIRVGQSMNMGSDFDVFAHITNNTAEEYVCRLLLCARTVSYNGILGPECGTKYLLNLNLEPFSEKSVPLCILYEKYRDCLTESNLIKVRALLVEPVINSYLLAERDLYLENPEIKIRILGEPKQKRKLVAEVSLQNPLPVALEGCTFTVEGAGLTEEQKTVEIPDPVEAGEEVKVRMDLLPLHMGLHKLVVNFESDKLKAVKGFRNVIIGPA
Procedure: Confirmation using ELISA: An independent ELISA validated inhibition of TG2/FN complex formation by SMIs^11. The ELISA assay measured the binding between His6-TG2 captured to the wells by anti-His antibodies and biotinylated FN42 detectable with streptavidin-HRP (FIG. 12A). […] Selected compounds (at concentrations between 5 and 10 μM) inhibited the ELISA signal by 29.7% to 69.5%^11.
ELISA measured the interaction between recombinant His tagged TG2 (rTG2-His) and the biotinylated 42 kD fragment of FN (FN42) which were expressed and purified, as previously described (Yakubov et al., 2014). Briefly, a mixture of 10 nMrTG2-His and selected SMIs or DMSO was added to 96 well plates pre-coated with monoclonal anti-His antibody (Roche, Indianapolis, Ind.; 1:6000). The mixture was incubated for 1 h at RT with 5 nM biotinylated FN42. After washing, wells were incubated with streptavidin-HRP (Cell Signaling, #3999; 1:2000). The reaction was developed with 3,3′,5,5′tetramethylbenzidine (TMB) substrate (BD Biosciences, #555214) and the optical density at […] was measured by using a BioTek microplate reader (Winooski, Vt., USA). Data shown are means±SEM of two independent experiments (n=6).

[3] = tested on: OVCAR5 cells; test: Wound-healing assay, OVCAR5; format: cell-based, human; conditions: 8 μM, 24 hours
Procedure: (§1) Wound Healing was Performed in 12-Well Plates Coated with 1 μg/Ml FN (Sigma, #1141) overnight at 4° C. OC cells were plated at a density of 2×10^5 cells/well in media containing 2% FBS. Under these conditions cells adhered on substrate, but cell proliferation was minimized. After 16 hours, the cell monolayer was scraped in straight line. Cell debris was removed and serum free media containing selected SMIs or control was replenished. For consistency during image acquisition, a reference point was marked close to the scratch mark and the plate was imaged under phase-contrast microscope at 0, 2, 6, 12 and 24 hours. Wound closure was assessed as the distance between the wound edges, calculated and quantified using the Image Pro-Express software. The percentage of wound closure was evaluated using the formula […]. The rate of migration (μm/h) of OC cells into the wound space was evaluated as the distance difference between wound edges at 0 and 24 h, divided by 24. The experiments were performed in duplicates.

[4] = Solubility assay; format: physicochemical; conditions: aqueous buffer, kinetic from dmso stock; pH=7.4 PBS buffer, 2% DMSO
Procedure: Solubility was measured in a 384-well plate using a Synergy HTX plate reader. Starting with a 50 mM DMSO stock solution of test compounds, dilutions were made from 1 to 500 μM final concentrations using acetonitrile, keeping the final DMSO concentration at 2%. UV absorption was measured at 254 nm and absorbance versus concentration was plotted to give a standard curve. A DMSO stock of test compound was also diluted with pH=7.4 PBS buffer to give a final concentration of 250 μM containing 2% DMSO. This mixture was stirred on a plate shaker for 1 hr after which it was centrifuged at 2500 rpm for 3 min. 50 μL of the supernatant was removed, transferred to a 384-well plate, and the UV absorbance at 254 nm was measured. Absorbance of the test compound in PBS buffer was analyzed with the standard curve to determine solubility.

[5] = tested on: SKOV3 cells; test: Wound-healing assay, SKOV3; format: cell-based; conditions: 8 μM, 24 hours
Procedure: as §1

[6] = tested on: SKOV3-GFP cells; test: In vivo cell attachment to the peritoneum; parameters: species or system mice; conditions: for unattached OC cells recovered from the peritoneal cavity: NSG mice, ip, 10 μg/kg, 2 hours after injection
[7] = tested on: OVCAR433 cells adhesion onto LP9 monolayers; test: Cell adhesion to LP9 mesothelial monolayers, OVCAR433; format: cell-based; conditions: at concentrations >10 μM
Procedure: (§2) LP9 mesothelial cells added to clear-bottom 96-well plate at 12,000 cells/well were grown to confluency over 48 hours (h). OC cells were labeled with calcein AM and seeded at a density of 4×10^4 cells to monolayers of mesothelial cells and incubated for 1 h. Non-adherent cells were removed by washing with PBS.

[8] = tested on: FAK phosphorylation in SKOV3 cells; test: Western blotting, FAK phosphorylation dose response; format: cell-based; conditions: increasing doses (TG53 8 to 16 μM), 2 hours after adhesion to FN
Procedure: FIG. 33. Dose response effects induced by TG2-FN inhibitors on FAK phosphorylation.
Lysates were separated by SDS-PAGE, transferred onto PVDF membranes (Bio-Rad), incubated with primary and secondary antibodies and developed by using SuperSignal™ West Femto Maximum Sensitivity Substrate and Pierce™ ECL Western Blotting Substrate, respectively (Thermo Scientific). Images were obtained by using the ImageQuant LAS 4000 mini-imager (GE Healthcare, Pittsburgh, Pa.). Densitometry analysis was performed using Quantity One software (Bio-Rad) and results were normalized to GAPDH loading controls. DMSO 0 min time point was considered as 1 for comparative analysis.

[9] = tested on: SKOV3 cells adhesion onto LP9 monolayers; test: Cell adhesion to LP9 mesothelial monolayers, SKOV3; format: cell-based; conditions: 25 μM
Procedure: as §2

| inhibition of rTG2-FN42 interaction relative to TG53 [2] | solubility at 1 h [4] | Structure (SMILES) | OC cells' adhesion to FN [1] | motility (scratch repair) [3] | motility (scratch repair) [5] | unattached OC cells recovered from the peritoneal cavity [6] | unattached OC cells recovered from the peritoneal cavity ([6]; listed as MT6) | adhesion of cancer cells to the peritoneum ([6]; nude mice, i.p., 2 hours) | OVCAR433 adhesion to the LP9 layer [7] | FAK phosphorylation [8] | SKOV3 cell binding to the mesothelial layer [9] |
| --- | --- | --- | --- | --- | --- | --- | --- | --- | --- | --- | --- |
| – | – | COc1cccc(C(=O)Nc2ccc(Nc3nc(C)cc(N(C)C)n3)cc2)c1 [MT-2] | potently blocked | – | – | – | – | – | – | – | – |
| slightly more potently than TG53 | 6.4 µM | Cc1cc(N(C)C)nc(Nc2ccc(NC(=O)c3cccc(Br)c3)cc2)n1 [MT-6] | potently blocked | inhibited | inhibited | attached less efficiently | Increased numbers | prevented the adhesion | dose-dependent inhibitory effect | – | – |
| slightly more potently than TG53 | – | Cc1cc(N(C)C)nc(Nc2ccc(NC(=O)c3ccc4ccccc4c3)cc2)n1 [MT-5] | potently blocked | inhibited | inhibited | – | – | – | dose-dependent inhibitory effect | dose-dependent inhibition | significantly decreased |
| slightly more potently than TG53 | – | Cc1cc(N(C)C)nc(Nc2ccc(NC(=O)c3ccc(Cl)c(Cl)c3)cc2)n1 [MT-3] | – | – | – | – | – | – | – | – | – |
